In general, IC50 refers to the concentration at which inhibition is half-maximal. Read a low IC50 as greater potency. As a reminder, the logD is lipophilicity at a set pH, counting ionised and neutral species. Broadly, the efflux ratio is the permeability from basolateral to apical divided by that in the opposite direction, in the common usage. The term pKa denotes the pH at which an ionisable group is half protonated.

In data set [1] the test system is IL‐4, STAT6‐Luc. The data set can be described thus: IL-4-induced JAK-STAT6-luciferase assay in U937 monocytes. Type of data set: cell-based. To be noted: Homo sapiens, U-937, interleukin at EC80.
The test system of data set [2] is C3H/HeJ mouse model of AA. The data set is described as follows: Hair growth (Hair Index Score) in C3H/HeJ graft-induced AA mice. Type of data set: in vivo. As to conditions: for hair growth, result in words: AA mice; for Hair index score (% area x score, 0 to 3): individual mice and mean±SD. The protocol: Female C3H/HeJ graft‐induced mice were used as a preclinical model of Alopecia Areata (AA) according to previous publications.[45], [46], [47] Healthy C3H/HeJ and mice with fully developed AA (16–24 weeks after induction of disease) were monitored by means of body weight and hair index score on a weekly basis for 12 weeks, with free access to food and water (Healthy and AA groups, respectively).
Hair growth was evaluated using a scoring index (Hair Index Score, HIS). A score from 0 to 3 (0 = no fur, 1 = stubble, short broken hairs, 2 = sparse, intermediate length hairs, 3 = normal length and density hairs) was taken times the surface area of the mouse with each respective score (dorsal area = 50%, ventral area = 50%).
12 mice were given once daily servings of Cmpd A for free eating at approximately 100 mg/kg (compound dissolved in 10 ml tap water and mixed with 5 g grounded R70 standard rodent chow from Lantmännen, Sweden) for 4 weeks. Typically, these servings were finished within 2 h. Six mice were terminated at the end of the treatment period, blood and skin taken for determination of drug concentration and skin sampled for histopathological evaluation (see below, these mice are representing the systemic JAK1 inhibition group in histopathological evaluations). Skin biopsies for mRNA expression and blood was sampled from the other 6 mice where after these mice were followed off treatment for an additional 8 weeks when terminal samples were taken (8w off Tx group).
Another set of 6 mice were treated topically on the right side of their back with Cmpd B (0.1% cream formulation, Eucerin Aquaporin rich) for 12 weeks (local JAK1 inhibition group). Initially, twice weekly for 2 weeks followed by once weekly due to high tissue retention. Plasma exposure was evaluated during the course of the study as well as at termination when also skin was sampled for exposure, histopathological evaluation and mRNA expression.
The aim of the study was to achieve similar skin exposures by both routes of administration but only systemic exposure after oral administration. […] Blood, skin, lymph nodes and spleens were collected at termination for evaluation of exposure, mRNA expression, histopathology (RNAScope) and cell differentials (flow cytometry). Untreated healthy and alopecic mice served as controls (n = 6).

The target in data set [3] is T1, JAK3 (Homo sapiens, UniProt P52333).
T1 sequence (P52333 1-1124): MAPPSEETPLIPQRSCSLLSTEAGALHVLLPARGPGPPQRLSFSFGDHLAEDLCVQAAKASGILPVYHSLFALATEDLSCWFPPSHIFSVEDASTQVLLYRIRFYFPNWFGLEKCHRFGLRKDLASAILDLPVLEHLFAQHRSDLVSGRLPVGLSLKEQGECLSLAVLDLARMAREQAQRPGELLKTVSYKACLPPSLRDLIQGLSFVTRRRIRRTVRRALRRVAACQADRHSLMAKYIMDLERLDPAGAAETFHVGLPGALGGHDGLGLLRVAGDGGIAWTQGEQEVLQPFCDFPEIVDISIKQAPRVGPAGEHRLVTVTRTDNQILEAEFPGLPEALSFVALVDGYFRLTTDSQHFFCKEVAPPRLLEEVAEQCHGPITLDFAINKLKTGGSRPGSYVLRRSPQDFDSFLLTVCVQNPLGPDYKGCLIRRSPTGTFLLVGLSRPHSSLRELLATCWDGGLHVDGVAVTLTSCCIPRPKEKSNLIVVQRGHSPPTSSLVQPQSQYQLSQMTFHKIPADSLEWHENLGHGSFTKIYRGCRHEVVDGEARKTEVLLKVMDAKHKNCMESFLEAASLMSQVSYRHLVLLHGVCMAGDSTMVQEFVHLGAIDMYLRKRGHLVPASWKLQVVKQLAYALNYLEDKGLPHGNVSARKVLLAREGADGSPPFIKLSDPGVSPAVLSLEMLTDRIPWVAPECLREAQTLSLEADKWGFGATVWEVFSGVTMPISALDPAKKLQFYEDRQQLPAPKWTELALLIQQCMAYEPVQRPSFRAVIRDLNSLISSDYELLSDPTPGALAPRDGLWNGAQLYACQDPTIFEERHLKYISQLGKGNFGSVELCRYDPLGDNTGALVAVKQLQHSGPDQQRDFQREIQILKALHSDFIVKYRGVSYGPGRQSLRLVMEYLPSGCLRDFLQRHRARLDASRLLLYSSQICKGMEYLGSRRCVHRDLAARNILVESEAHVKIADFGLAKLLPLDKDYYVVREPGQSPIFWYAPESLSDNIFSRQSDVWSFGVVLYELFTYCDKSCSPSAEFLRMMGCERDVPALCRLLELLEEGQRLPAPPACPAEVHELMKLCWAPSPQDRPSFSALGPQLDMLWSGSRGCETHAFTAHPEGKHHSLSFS
The data set can be described thus: JAK3 kinase inhibition, Calliper assay. In kind it is biochemical. To be noted: physiological ATP concentration of 5 mM.

In data set [4] the target is JAK1 (Homo sapiens, UniProt P23458). The data set can be described thus: JAK1 kinase inhibition, Calliper assay. To be noted: physiological ATP concentration of 5 mM. In kind it is biochemical.
Chain of JAK1 (P23458 whole entry, species assumed): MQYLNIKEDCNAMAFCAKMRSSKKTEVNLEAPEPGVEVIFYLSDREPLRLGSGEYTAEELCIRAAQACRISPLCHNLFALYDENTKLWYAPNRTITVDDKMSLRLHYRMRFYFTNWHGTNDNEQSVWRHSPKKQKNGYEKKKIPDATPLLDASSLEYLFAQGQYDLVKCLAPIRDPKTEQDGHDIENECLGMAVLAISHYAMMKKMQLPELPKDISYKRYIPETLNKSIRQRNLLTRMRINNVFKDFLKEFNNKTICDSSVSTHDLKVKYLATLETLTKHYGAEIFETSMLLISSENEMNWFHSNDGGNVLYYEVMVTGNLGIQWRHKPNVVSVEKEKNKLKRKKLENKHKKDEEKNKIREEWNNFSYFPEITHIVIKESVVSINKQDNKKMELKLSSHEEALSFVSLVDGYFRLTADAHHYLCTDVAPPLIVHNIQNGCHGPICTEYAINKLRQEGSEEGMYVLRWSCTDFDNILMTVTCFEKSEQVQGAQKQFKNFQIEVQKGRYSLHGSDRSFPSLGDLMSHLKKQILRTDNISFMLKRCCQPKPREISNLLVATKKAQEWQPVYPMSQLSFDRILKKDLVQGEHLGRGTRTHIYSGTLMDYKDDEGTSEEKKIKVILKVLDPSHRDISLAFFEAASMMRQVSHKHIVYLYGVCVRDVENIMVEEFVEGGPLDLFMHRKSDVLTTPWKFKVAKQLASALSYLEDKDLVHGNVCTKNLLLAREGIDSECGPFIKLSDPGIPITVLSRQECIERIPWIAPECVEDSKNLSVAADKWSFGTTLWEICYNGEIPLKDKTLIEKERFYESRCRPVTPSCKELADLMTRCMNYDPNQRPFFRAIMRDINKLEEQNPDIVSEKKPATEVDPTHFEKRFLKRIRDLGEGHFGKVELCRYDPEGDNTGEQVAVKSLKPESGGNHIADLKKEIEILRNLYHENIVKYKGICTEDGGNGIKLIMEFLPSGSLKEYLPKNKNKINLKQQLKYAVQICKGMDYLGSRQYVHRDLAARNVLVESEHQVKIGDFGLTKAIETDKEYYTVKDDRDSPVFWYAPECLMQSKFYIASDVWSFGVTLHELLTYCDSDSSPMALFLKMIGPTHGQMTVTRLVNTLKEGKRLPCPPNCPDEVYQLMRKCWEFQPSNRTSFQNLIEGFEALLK
Data set [5] can be described thus: LogD7.4. In kind it is physicochemical. As to conditions: pH 7.4. The source says: TABLE 2 In vitro and in vivo DMPK properties of Cmpd A, B & C | column: In vitro mouse & physical chemical properties / LogD7.4
Data set [6] can be described thus: Caco permeability and efflux. Type of data set: in vitro ADME. To be noted: human, Caco-2; for Papp A→B: read-out: Caco AtB. The source says:
TABLE 2 In vitro and in vivo DMPK properties of Cmpd A, B & C | column: In vitro mouse & physical chemical properties / Caco AtB 10^−6 cm/s/Efflux ratio ^b

Data set [7] is described as follows: Basic pKa. In kind it is physicochemical. To be noted: read-out: Basic pKa's. From the text: TABLE 2 In vitro and in vivo DMPK properties of Cmpd A, B & C | column: In vitro mouse & physical chemical properties / Basic pKa's
[8] abbreviates: topical application (local exposure).

SMILES strings stand for the structures. “And” between values parts separate entries of the source, which are not always exact repeats. Identical values can stand only once.

Consider `Cc1cnc(Nc2cc(N3C[C@@H]4C[C@H]3CN4C)cnc2F)nc1N[C@H](C)[C@H](C)CO` [Cmpd B, (2S,3R)-3-{[2-({2-fluoro-5-[(1S,4S)-5-methyl-2,5-diazabicyclo[2.2.1]heptan-2-yl]pyridin-3-yl}amino)-5-methylpyrimidin-4-yl]amino}-2-methylbutan-1-ol], for which the IC50 was 110 nM in data set [1], greater than 30 µM in data set [3] and 9.3 nM in data set [4]. Further, the “hair growth, result in words” value in data set [2] (setting [8]) was “did not restore hair growth”. For the same compound, the “Hair index score (% area x score, 0 to 3)” value is 50 and 0 in data set [2] (Local JAK1i (0.1% cream topical), treated side, w0, n=6); 17±26 in data set [2] (Local JAK1i (0.1% cream topical), treated side, w0, n=6, mean); 30 and 0 and 10 in data set [2] (Local JAK1i (0.1% cream topical), untreated side, w0, n=6); 7±12 in data set [2] (Local JAK1i (0.1% cream topical), untreated side, w0, n=6, mean); 50 and 0 and 100 in data set [2] (Local JAK1i, treated side, w1); 25±42 in data set [2] (Local JAK1i, treated side, w1, mean). In addition, the “Hair index score (% area x score, 0 to 3)” value in data set [2] (Local JAK1i, treated side, w4) is 80 and 0 and 10 and 20; in data set [2] (Local JAK1i, treated side, w4, mean), 18±31; in data set [2] (Local JAK1i, treated side, w6) it was 200 and 0 and 50 and 30; in data set [2] (Local JAK1i, treated side, w6, mean) it was 47±78; in data set [2] (Local JAK1i, treated side, w7), 200 and 80 and 0 and 100; in data set [2] (Local JAK1i, treated side, w7, mean) it was 80±75. In addition, the “Hair index score (% area x score, 0 to 3)” value in data set [2] (Local JAK1i, treated side, w8) is 200 and 0 and 50 and 100; in data set [2] (Local JAK1i, treated side, w8, mean), 58±80; in data set [2] (Local JAK1i, treated side, w9), 240 and 0 and 25 and 70 and 90; in data set [2] (Local JAK1i, treated side, w9, mean) it was 71±91; in data set [2] (Local JAK1i, treated side, w11), 240 and 0 and 100 and 80; in data set [2] (Local JAK1i, treated side, w11, mean) it was 70±94. For the same compound, the “Hair index score (% area x score, 0 to 3)” value was 40 and 0 and 100 in data set [2] (Local JAK1i, untreated side, w1); 23±41 in data set [2] (Local JAK1i, untreated side, w1, mean); 70 and 0 and 10 and 30 in data set [2] (Local JAK1i, untreated side, w4); 18±28 in data set [2] (Local JAK1i, untreated side, w4, mean); 170 and 0 and 10 and 20 in data set [2] (Local JAK1i, untreated side, w6); 33±67 in data set [2] (Local JAK1i, untreated side, w6, mean). In addition, the “Hair index score (% area x score, 0 to 3)” value in data set [2] (Local JAK1i, untreated side, w7) was 170 and 0; in data set [2] (Local JAK1i, untreated side, w7, mean) it was 28±69; in data set [2] (Local JAK1i, untreated side, w8), 170 and 0 and 10; in data set [2] (Local JAK1i, untreated side, w8, mean), 30±69; in data set [2] (Local JAK1i, untreated side, w9), 200 and 0 and 25; in data set [2] (Local JAK1i, untreated side, w9, mean), 37±80. In addition, the “Hair index score (% area x score, 0 to 3)” value is 200 and 0 and 30 and 50 in data set [2] (Local JAK1i, untreated side, w11); 47±78 in data set [2] (Local JAK1i, untreated side, w11, mean). The same compound registered a pH-dependent lipophilicity (logD) in data set [5] of 1.5. For the same compound, the efflux ratio in data set [6] (Efflux ratio = BtA/AtB) came to 14. Moreover, in data set [6], the Papp A→B is 0.3 ×10⁻⁶ cm/s. Besides, the pKa in data set [7] was 8.6.
`COCC(C(=O)Nc1cccc2c(-c3nc(Nc4cccc(S(C)(=O)=O)c4F)ncc3F)c[nH]c12)N1CCN(C)CC1` (stereo not drawn) [Cmpd C]: the half-maximal inhibitory concentration (IC50) in data set [1] is 24 nM; in data set [3] it was greater than 30 µM; in data set [4], less than 3 nM. In addition, the “hair growth, result in words” value in data set [2] (oral daily servings (systemic exposure)) is on record as “induced hair growth”; in data set [2] (setting [8]), “did not”. In data set [5], the pH-dependent lipophilicity (logD) stood at 2.6. The Papp A→B in data set [6] worked out at 6.7 ×10⁻⁶ cm/s. For the same compound, the pKa in data set [7] stood at 7.9.

The record behind these values is publication PMC10233092, “Selective Janus kinase 1 inhibition resolves inflammation and restores hair growth offering a viable treatment option for alopecia areata” (Skin Health and Disease, 2023).
